# US10435402B2, “Bicyclic compounds, compositions and medicinal applications thereof” (Advinus Therapeutics Limited, priority 2015, dated 2019)
# Molecular target: T1, GAL4-DBD/RORγ-LBD (Homo sapiens, UniProt P51449)
# T1 construct: expressed in transfected cells; host or cells: HEK293T
# Assay: RORγt transactivation reporter assay (GAL4-DBD/RORγ-LBD, luciferase read out)
# Assay type: cell-based
# Details: HEK293T cells, GAL4-UAS luciferase reporter, overnight (18-24 hours) incubation
# Protocol: RORγt Transactivation Reporter Assay Protocol: The inhibition of RORγt activity in cells was evaluated using a GAL4-UAS reporter system in HEK293T cells employing a luciferase read out. RORγt ligand binding domain (LBD) was cloned into the pFN26A (BIND) vector (Promega #[…]) containing yeast GAL4-DBD to form a RORγt LBD-GAL4 DBD fusion construct. This vector also contained a Renilla Luciferase reporter expressed under a SV40 promoter which was used as a control for transfection efficiency. A transcriptional reporter expression construct pGL4.35 (Promega #[…]) was used to monitor RORγt LBD-GAL4 activity. This construct contained nine repeats of GAL4 binding site/upstream activating sequence (UAS) controlling expression of a firefly luciferase reporter Luc2P. When transfected together in cells, the RORγ-LBD-DBD fusion protein drives expression of the luciferase reporter. For the assay, HEK293T cells were plated in a flat bottom 96 well plate at a density of 25,000 cells/well/100 ul of DMEM high glucose medium (Sigma D5648) containing 10% FBS and antibiotic. Cells were incubated overnight at 37 C/5% CO2. The next day, medium from the wells was removed and replaced with 30 ul of OptiMEM® (Invitrogen #31985070). 100 ng each of pBIND RORγ LBD-DBD and pGL4.35 reporter plasmids was transfected in HEK293T cells using Lipofectamine 2000 (Invitrogen #11668-019) where 10 ul of transfection complex was added to the each well. Control transfections were performed with an empty pF[…] vector and pGL4.35 vector. The transfected cells were incubated for 5 hours at 37 C/5% CO2. After incubation, 40 ul of DMEM high glucose medium without FBS, with antibiotic was added to each well. A 10 mM stock solution of test compound prepared in 100% DMSO was first diluted in DMSO and then in DMEM medium without FBS to give the required final compound concentration. Concentration of DMSO in the test compound solution was 0.4%. 20 ul of diluted compound solution was added to each well. Cells were incubated overnight (18-24 hours) at 37 C/5% CO2. The next day, luciferase assay was performed using the Dual Glo® Luciferase Assay System (Promega #E2940). Briefly, medium was removed from the wells and replaced with 40 ul 1× Passive Lysis Buffer (Promega #E1941). Plate was incubated at room temperature on a plate shaker at 1000 rpm for 40 min. After incubation, plate was centrifuged at 1000 rpm for 2 min. 20 ul of the lysate was transferred from each well to that of solid white half area 96 well plate (Costar #3693). Dual Glo® Reagent was thawed to room temperature and 20 ul was added to each well containing lysate. Plate was centrifuged at 1000 rpm/2 min and incubated at room temperature on a plate shaker at 600 rpm/25 min. Firefly luciferase signal was measured on a Tecan Safire2. After measurement, 20 ul of Dual Glo® Stop Glo® Reagent was added to each well. Plate was centrifuged at 1000 rpm/2 min and incubated at room temperature on a plate shaker at 600 rpm/25 min. Renilla luciferase signal was measured on Tecan Safire 2. IC50 values for test compounds were calculated from the normalized luciferase signal data using GraphPad Prism software.
# T1 sequence (P51449 269-508 limits assumed): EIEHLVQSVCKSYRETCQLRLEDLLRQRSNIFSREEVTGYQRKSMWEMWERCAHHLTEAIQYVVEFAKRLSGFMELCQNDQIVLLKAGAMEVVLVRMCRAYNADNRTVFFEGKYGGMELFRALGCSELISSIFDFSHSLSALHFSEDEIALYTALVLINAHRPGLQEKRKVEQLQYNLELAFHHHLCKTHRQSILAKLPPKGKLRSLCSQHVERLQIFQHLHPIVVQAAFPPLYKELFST
# T1 sequence (P04386 1-147 partner limits assumed): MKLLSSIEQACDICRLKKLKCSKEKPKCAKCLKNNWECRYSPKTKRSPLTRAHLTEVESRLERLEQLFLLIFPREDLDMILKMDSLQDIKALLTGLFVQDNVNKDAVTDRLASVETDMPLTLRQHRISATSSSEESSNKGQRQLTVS
row,IC50 [nM],Compound
1,< 500,"O=C(O)c1ccc(-c2c(F)c(C(=O)c3c(Cl)cccc3Cl)n3ccccc23)cc1 [Example B-2, 4-[3-(2,6-dichlorobenzoyl)-2-fluoro-indolizin-1-yl]benzoic acid]"
2,> 5000,"O=C(O)c1ccc(-c2cc(C(=O)c3c(Cl)cccc3Cl)n3ccccc23)cn1 [Example A-10, 5-[3-(2,6-dichlorobenzoyl)indolizin-1-yl]pyridine-2-carboxylic acid]"
3,< 500,"CN(C)C(=O)c1ccc2c(-c3ccc(C(=O)O)cc3)cc(C(=O)c3c(Cl)cccc3C(F)(F)F)n2c1 [Example D-1, 4-[3-[2-chloro-6-(trifluoromethyl)benzoyl]-6-(dimethylcarbamoyl)indolizin-1-yl]benzoic acid]"
4,< 500,"O=C(O)c1ccc(-c2cc(C(=O)c3c(F)cccc3F)n3cccc(F)c23)cc1 [Example A-47, 4-[3-(2,6-difluorobenzoyl)-8-fluoro-indolizin-1-yl]benzoic acid]"
5,< 500,"COC(=O)c1ccc(-c2c(F)c(C(=O)c3c(Cl)cccc3Cl)n3ccccc23)c(F)c1 [Example B-3, methyl 4-[3-(2,6-dichlorobenzoyl)-2-fluoro-indolizin-1-yl]-3-fluoro-benzoate]"
6,< 500,"O=C(O)c1ccc(-c2cc(C(=O)c3c(F)cccc3Cl)n3cccc(F)c23)cc1 [Example A-34, 4-[3-(2-chloro-6-fluoro-benzoyl)-8-fluoro-indolizin-1-yl]benzoic acid]"
7,< 500,"CCOC(=O)c1ccc(-c2cc(C(=O)c3c(F)cccc3Cl)n3ccccc23)cc1 [Example A-24, ethyl 4-[3-(2-chloro-6-fluoro-benzoyl)indolizin-1-yl]benzoate]"
8,< 500,"COC(=O)c1ccc(-c2cc(C(=O)c3c(Cl)ccc(F)c3Cl)n3ccccc23)c(F)c1 [Example A-17, methyl 4-[3-(2,6-dichloro-3-fluoro-benzoyl)indolizin-1-yl]-3-fluoro-benzoate]"
9,> 5000,"O=C(O)c1ccc(-c2cc(C(=O)c3c(Cl)cccc3C(F)(F)F)n3c2CCCC3)c(F)c1 [Example H-4, 4-[3-[2-chloro-6-(trifluoromethyl)benzoyl]-5,6,7,8-tetrahydroindolizin-1-yl]-3-fluoro-benzoic acid]"
10,< 500,"Cc1cccc(Cl)c1C(=O)c1cc(-c2ccc(C(=O)O)cc2)c2ccccn12 [Example A-16, 4-[3-(2-chloro-6-methyl-benzoyl)indolizin-1-yl]benzoic acid]"
11,< 500,"O=C(O)c1ccc(-c2cc(C(=O)c3c(F)cccc3F)n3cccc(F)c23)c(F)c1 [Example A-48, 4-[3-(2,6-difluorobenzoyl)-8-fluoro-indolizin-1-yl]-3-fluoro-benzoic acid]"
12,< 500,"O=C(O)c1ccc(-c2cc(C(=O)c3c(Cl)cccc3C(F)(F)F)n3ccccc23)cc1F [Example A-60, 4-[3-[2-chloro-6-(trifluoromethyl)benzoyl]indolizin-1-yl]-2-fluoro-benzoic acid]"
13,< 500,"COC(=O)c1ccc(-c2c(C)c(C(=O)c3c(Cl)cccc3C(F)(F)F)n3ccccc23)c(F)c1 [Example C-8, methyl 4-[3-[2-chloro-6-(trifluoromethyl)benzoyl]-2-methyl-indolizin-1-yl]-3-fluoro-benzoate]"
14,< 500,"O=C(O)c1ccc(-c2cc(C(=O)c3c(Cl)cccc3C(F)(F)F)n3cccc(Cl)c23)c(F)c1 [Example A-59, 4-[8-chloro-3-[2-chloro-6-(trifluoromethyl)benzoyl]indolizin-1-yl]-3-fluoro-benzoic acid]"
15,< 500,"Cc1c(-c2ccc(C(=O)O)cc2F)c2ccccn2c1C(=O)c1c(Cl)cccc1Cl [Example C-2, 4-[3-(2,6-dichlorobenzoyl)-2-methyl-indolizin-1-yl]-3-fluoro-benzoic acid]"
16,< 500,"CCOC(=O)c1ccc(-c2cc(C(=O)c3c(F)cccc3F)n3ccccc23)c(F)c1 [Example A-38, ethyl 4-[3-(2,6-difluorobenzoyl)indolizin-1-yl]-3-fluoro-benzoate]"
17,< 500,"O=C(O)c1ccc(-c2cc(C(=O)c3c(Cl)cccc3C(F)(F)F)n3c2CCCC3)cc1 [Example H-1, 4-[3-[2-chloro-6-(trifluoromethyl)benzoyl]-5,6,7,8-tetrahydroindolizin-1-yl]benzoic acid]"
18,< 500,"CCOC(=O)c1ccc(-c2cc(C(=O)c3c(F)ccc(F)c3F)n3ccccc23)c(F)c1 [Example A-41, ethyl 3-fluoro-4-[3-(2,3,6-trifluorobenzoyl)indolizin-1-yl]benzoate]"
19,< 5000,"CCOC(=O)c1ccc(-c2c(C)c(C(=O)c3c(Cl)ccnc3Cl)n3ccccc23)cc1 [Example C-10, ethyl 4-[3-(2,4-dichloropyridine-3-carbonyl)-2-methyl-indolizin-1-yl]benzoate]"
20,< 500,"CCOC(=O)c1ccc(-c2cc(C(=O)c3c(F)cccc3F)n3cccc(F)c23)c(F)c1 [Example A-46, ethyl 4-[3-(2,6-difluorobenzoyl)-8-fluoro-indolizin-1-yl]-3-fluoro-benzoate]"
21,< 500,ethyl 4-[3-(2-chloro-6-fluoro-benzoyl)-8-fluoro-indolizin-1-yl]-3-fluoro-benzoate [Example A-33]
22,> 5000,"CC(C)(C)OC(=O)N1CCC=C(c2cc(C(=O)c3c(Cl)ccc(F)c3Cl)n3ccccc23)C1 [Example A-55, tert-butyl 5-[3-(2,6-dichloro-3-fluoro-benzoyl)indolizin-1-yl]-3,6-dihydro-2H-pyridine-1-carboxylate]"
23,< 500,"CCOC(=O)c1ccc(-c2cc(C(=O)c3c(F)cccc3F)n3ccccc23)cc1 [Example A-36, ethyl 4-[3-(2,6-difluorobenzoyl)indolizin-1-yl]benzoate]"
24,< 500,"Cc1c(-c2ccc(C(=O)O)cc2F)c2n(c1C(=O)c1c(Cl)cccc1Cl)CCCC2 [Example H-2, 4-[3-(2,6-dichlorobenzoyl)-2-methyl-5,6,7,8-tetrahydroindolizin-1-yl]-3-fluoro-benzoic acid]"
25,> 5000,"4-[3-(2,6-dichloro-3-fluoro-benzoyl)indolizin-1-yl]-N,N-dimethyl-benzamide [Example F-2]"
26,< 5000,"O=C(O)c1ccc(-c2cc(C(=O)c3c(Cl)cccc3Cl)n3cc(C(F)(F)F)ccc23)cc1 [Example A-63, 4-[3-(2,6-dichlorobenzoyl)-6-(trifluoromethyl)indolizin-1-yl]benzoic acid]"
27,< 5000,"O=C(O)c1ccc(-c2cc(Oc3c(Cl)cccc3Cl)n3ccccc23)c(F)c1 [Example E-2, 4-[3-(2,6-dichlorophenoxy)indolizin-1-yl]-3-fluoro-benzoic acid]"
28,> 5000,"CC(C)(C)OC(=O)N1CC=C(c2cc(C(=O)c3c(Cl)cccc3Cl)n3ccccc23)CC1 [Example A-54, tert-butyl 4-[3-(2,6-dichlorobenzoyl)indolizin-1-yl]-3,6-dihydro-2H-pyridine-1-carboxylate]"
29,< 500,"COC1CN(C(=O)c2ccc3c(-c4ccc(C(=O)O)cc4)cc(C(=O)c4c(Cl)cccc4Cl)n3c2)C1 [Example D-14, 4-[3-(2,6-dichlorobenzoyl)-6-(3-methoxyazetidine-1-carbonyl)indolizin-1-yl]benzoic acid]"

row,Compound,IC50 [nM]
1,"4-[6-carbamoyl-3-(2,6-dichlorobenzoyl)indolizin-1-yl]benzoic acid [Example D-13]",< 5000
2,"4-[3-(2,6-difluorobenzoyl)indolizin-1-yl]benzoic acid [Example A-37]",< 500
